Measurements from US20120202288A1, “COMPOSITIONS COMPRISING CYCLIC AMP ENHANCERS AND/OR EP LIGANDS, AND METHODS OF PREPARING AND USING THE SAME” (FATE THERAPEUTICS, INC., priority 2009, published 2012).
Like-named read-outs stand apart in the source and are kept apart here. One block for each compound: values may come before it.

What was measured:
[1] = Stability of 16,16-dimethyl PGE2 formulation, storage at −80° C.; format: physicochemical; conditions: for Assay (% LC): 10 mM in DMSO, 2 ml glass vial; for Purity (%): stability
Procedure: (§1) 16,16-dimethyl PGE2 and its related substances were separated on a Phenomenex, Synergi Hydro RP 4μ HPLC column with gradient elution conditions and detected at 205 nm. The assay of 16,16-dimethyl PGE2 was determined by comparing the 16,16-dimethyl PGE2 peak area of the test samples with that of a reference standard of known concentration and purity. The levels of the impurities and degradation products were determined from the peak area ratio of each individual impurity to the total peak area of the 16,16-dimethyl PGE2 and all impurities and degradation products. The identify of 16,16-dimethyl PGE2 was confirmed by comparing the retention time of the main peak of the test sample against that in the reference standard.
(§2) Stability tests were performed on formulations of 16,16-dimethyl PGE2 stored at either −80° C. or −20° C. for up to six months. These clinical formulations were composed of 10 mM 16,16-dimethyl PGE2 in […] DMSO, and were stored in a 2 ml Type I clear glass vial with a 13 mm West 4432/50 Teflon coated stopper. The results are shown in Tables 3 (−80° C.) and 4 (−20° C.) below.

[2] = Stability of 16,16-dimethyl PGE2 formulation, storage at −20° C.; format: physicochemical; conditions: for Assay (% LC): 10 mM in DMSO, 2 ml glass vial; for Purity (%): stability
Procedure: as §1, §2

[3] = tested on: hematopoietic stem cells (HSCs); experiment: Ex vivo treatment of HSCs prior to transplant, engraftment of donor HSCs; format: in vivo; conditions: bone marrow cells incubated with 10 μM at 4° C. for one hour, then transplanted into allogeneic subject
Procedure: Bone marrow cells containing HSCs are obtained directly by removal from the hip of a donor subject using a needle and syringe. The heterogeneous mixture of bone marrow cells is transferred to two separate tissue culture flasks, and a suitable growth medium is provided.
262 μl of a 10 mM solution of 16,16-dimethyl PGE2 in DMSO is added to the cells in the first tissue culture flask, to a final working concentration of 10 μM of 16,16-dimethyl PGE2. The same amount of DMSO without agent is added to the second flask as a control, and the cells in both flasks are incubated at 4° C. (e.g., in an ice bath) for one hour. The 16,16-dimethyl PGE2 is at least 90% pure as measured by HPLC, and is produced by good manufacturing practice (GMP).
After incubation of the HSCs in the ice bath, the cells from each flask are administered to separate, but otherwise genetically identical subjects. These subjects are both allogeneic to the donor cells. The subjects are then observed for engraftment of the donor HSCs, using markers that are specific for the donor cells.

[4] = tested on: human umbilical cord-derived CD34+ cells; conditions: apoptosis induced by nitric oxide (NO) or serum deprivation; cited from earlier work
[5] = cited from earlier work
[6] = tested on: hepatic stellate cells; conditions: cited from earlier work
[7] = tested on: dendritic cell (DC); conditions: ex vivo or in vitro; withdrawal of growth factors or ceramide; cited from earlier work
[8] = tested on: murine embryonic stem cell; conditions: cited from earlier work
[9] = tested on: transplanted stem cells; conditions: injection shortly after marrow cell graft; cited from earlier work

Assay (% LC) ([1]; 1 Month): 98.5 % LC
Assay (% LC) ([1]; 2 Months): 97.7 % LC
Assay (% LC) ([1]; 3 Months): 98.5 % LC
Assay (% LC) ([1]; 6 Months): 98.6 % LC
Assay (% LC) ([1]; Time Zero): 98.1 % LC
Product Appearance ([1]; 1 Month): conforms
Total Related Substances (%) ([1]; 1 Month): 5.33%
pH ([1]; 1 Month): 4.8
Product Appearance ([1]; 2 Months): conforms
Total Related Substances (%) ([1]; 2 Months): 5.51%
pH ([1]; 2 Months): 4.7
Product Appearance ([1]; 3 Months): conforms
Total Related Substances (%) ([1]; 3 Months): 5.35%
pH ([1]; 3 Months): 4.8
Product Appearance ([1]; 6 Months): conforms
Total Related Substances (%) ([1]; 6 Months): 5.51%
pH ([1]; 6 Months): 4.7
Product Appearance ([1]; Time Zero): conforms
Total Related Substances (%) ([1]; Time Zero): 5.52%
pH ([1]; Time Zero): 4.5
Purity (%) ([1]; 1 Month): 94.7%
Purity (%) ([1]; 2 Months): 94.5%
Purity (%) ([1]; 3 Months): 94.7%
Purity (%) ([1]; 6 Months): 94.5%
Purity (%) ([1]; Time Zero): 94.5%
Assay (% LC) ([2]; 1 Month): 98.7 % LC
Assay (% LC) ([2]; 2 Months): 97.4 % LC
Assay (% LC) ([2]; 3 Months): 98.8 % LC
Assay (% LC) ([2]; 6 Months): 97.5 % LC
Assay (% LC) ([2]; Time Zero): 98.1 % LC
Product Appearance ([2]; 1 Month): conforms
Total Related Substances (%) ([2]; 1 Month): 5.22%
pH ([2]; 1 Month): 4.8
Product Appearance ([2]; 2 Months): conforms
Total Related Substances (%) ([2]; 2 Months): 5.52%
pH ([2]; 2 Months): 4.7
Product Appearance ([2]; 3 Months): conforms
Total Related Substances (%) ([2]; 3 Months): 5.54%
pH ([2]; 3 Months): 4.6
Product Appearance ([2]; 6 Months): conforms
Total Related Substances (%) ([2]; 6 Months): 5.95%
pH ([2]; 6 Months): 4.6
Product Appearance ([2]; Time Zero): conforms
Total Related Substances (%) ([2]; Time Zero): 5.52%
pH ([2]; Time Zero): 4.5
Purity (%) ([2]; 1 Month): 94.8%
Purity (%) ([2]; 2 Months): 94.5%
Purity (%) ([2]; 3 Months): 94.5%
Purity (%) ([2]; 6 Months): 94.0%
Purity (%) ([2]; Time Zero): 94.5%
SMILES: CCCCC(C)(C)[C@H](O)/C=C/[C@H]1[C@H](O)CC(=O)[C@@H]1C/C=C\CCCC(=O)O [16,16-dimethyl PGE2]
number of engrafted HSC donor cells versus control-treated cells [3]: significantly greater number of engrafted HSC donor cells

SMILES: O[C@@H]1[C@@H]2OP(O)(=S)OC[C@H]2O[C@H]1n1cnc2cc(Cl)c(Cl)cc21 (stereo partly drawn) [BIMPS, sp-5,6-DCl-BIMPS]
survival of CD34+ cells [4]: promote survival

SMILES: CCCCC[C@@H](/C=C/[C@H]1[C@H](OC)CC(=O)[C@@H]1C/C=C\CCCC(=O)O)OC [ONO-AE-248]
effect on core temperature (Tc) ([5]; 20 nmol): increased the Tc

SMILES: CCCC[C@H](C)C[C@H](O)/C=C/[C@H]1[C@H](O)CC(=O)[C@@H]1CC(=O)C1CCC(C(=O)O)CC1 (stereo partly drawn) [ONO-DI-004]
effect on core temperature (Tc) ([5]; in vivo): increase the core temperature (Tc) in a dose-dependent manner

SMILES: CCCCC[C@H](O)/C=C/[C@H]1[C@H](O)CC(=O)[C@@H]1C/C=C\CCCC(=O)O [PGE2, Prostaglandin E2]
mitogenesis of hepatic stellate cells [6]: inhibits the mitogenesis
protection of DC against apoptosis [7]: protects DC
amplification of multipotent progenitors [8]: cause amplification of multipotent progenitors

SMILES: CCCC(=O)Nc1ncnc2c1ncn2[C@@H]1O[C@@H]2COP(=O)(O)O[C@H]2[C@H]1OC(=O)CCC [dibutyryl-cAMP, dibutyryl cyclic adenosine 3′,5′-monophosphate]
survival of CD34+ cells [4]: promote survival
entry of transplanted stem cells into S phase [9]: triggers the transplanted stem cells into entering S phase

SMILES: CC(C)NCC(O)c1ccc(O)c(O)c1 (stereo not drawn) [isoproterenol]
entry of transplanted stem cells into S phase [9]: triggers the transplanted stem cells into entering S phase
